Results: US6376666B1 (Nauchno-Issledovatelsky Institut Farmakologii Rossiiskoi …, priority 1994, dated 2002)

What was measured:
Type in all cases: in vivo
Balb/c mice = test: open-field test, Balb/c mice (passive type of emotional-stress reaction); parameters: key to Total activity: sum of all locomotor activity counts (crossings + rearings) in 3 min; conditions: for Central activity (crossings) / Number of defecations / Peripheral activity (crossings) / Total activity / Vertical activity (rearings): M ± mx; for effect on the behavior (locomotor activity) of Balb/c mice in open-field test, in words: i.p., screening
Source text: (§1) The main point of this approach consists in comparative analysis of the behavioural effects of tested compounds in two inbred strains of mice Balb/c and C57B1/6 with different hereditary types of emotional-stress reactions (ESR). The anxiolytic effect was estimated as the activation of the locomotor activity of animals with “passive” type of ESR (Balb/c mice). The main index describing the sedative properties of tested drugs was the inhibition of the locomotor activity of mice with “active” type of ESR (C57B1/6 strain). The anxioselectivity was evaluated according to coincidence of doses range which activated or inhibited the behavior of mice of different strains. Earlier this approach has been successfully used for estimation of anxioselective activity of such known drugs as phenazepam [Seredenin S. B. et al., Bull.Exp.Biol.Med., 1979, v.88, N7, p.38; Seredenin S. B. et al., Ann.Inst.Super.Sanita, 1990, v.26, N1, p.81-88], mexidol [Seredenin S. B. et al., Khimiko-Farmatsevt.Zhurnal, 1987, N2, p.134; Vironina T. A., Seredenin S. B., Ann.Inst.Super.Sanita, 1988, v.24, N3, p.461-466] and gidazepam [Seredenin S. B. et al., in: “Gidazepam” Kiev, Naukova Dumka, 1992, p.92; Seredenin S. B., Blednov Yu. A., Phys.Chem.Biol.Med., 1993, v.1, N1, p.53-60].
(§2) Male C57B1/6 and Balb/c mice (“Stolbovaya” animal farm), weighing 20-22 g were used. The animals were housed in a separate animal room in groups of ten and maintained on 12 h light-dark cycle (light from 8.00 till 20.00) with free access to standard food and water during two weeks before experiment. Testing was performed between 9.00 and 13.00. Every used compound was administered intraperitoneally in water solutions 30 min before testing (0,1 ml solution per 10 g of weight). The “open-field” apparatus consisted of cylinder closed from one end, illuminated by four 75 W lamps fixed to the walls 100 cm above the floor. The “open-field” apparatus was 100 cm in diameter and white-painted; the floor was marked with 3 black circles and some radial lines divided the floor into 16 peripheral and 8 central segments. 30 min after injection each animal was placed in the same peripheral square on the floor for 3 min of testing after 1 min exposure in the dark chamber. The following behavior variables were recorded: 1) the number of crossings in the peripheral area (peripheral activity); 2) the number of crossings in the central segments (central activity); 3) the number of rearings (vertical activity); 4) the emotionality was measured as the number of defecations during the test. The sum of all types of locomotor activity was marked as total activity. The t-Student test was used for statistical analysis.

cats = test: hemodynamics and activity of intact heart in cats under anesthesia; conditions: cats i.v.; for effect on heart rate, in words: doses of 0,5 mg/kg-2,0 mg/kg
Procedure: The effects of compounds on the hemodynamics and activity of intact heart were studied in cats under anesthesia. The experiments were carried out under conditions of open chest. The phase curve of aortic blood flow was the main index of cardiac activity. The compounds were administered i.v. in physiological solution. The t-Student' test was used to estimate the statistical significance.

C57B1/6 mice = test: open-field test, C57B1/6 mice (active type of emotional-stress reaction); parameters: key to Total activity: sum of all locomotor activity counts (crossings + rearings) in 3 min; conditions: for effect on locomotor activity of C57B1/6 mice in open-field test, in words: i.p., doses that activate Balb/c mice; for Central activity (crossings) / Peripheral activity (crossings) / Total activity / Vertical activity (rearings): M ± mx
Source text: as §1, §2

## Cc1cc2nc(SCCCN3CCN(C)CC3)[nH]c2cc1C [XVII, 2-[3-(4-Methylpyperazino)propylthio]-5,6-dimethylbenzimidazole]
Balb/c mice; 0.1 mg/kg i.p.
  Central activity (crossings): 0.5 ± 0.5
  Number of defecations: 2.0 ± 0.8
  Peripheral activity (crossings): 4.0 ± 1.0
  Total activity: 4.5 ± 1.5
Balb/c mice; 1.0 mg/kg i.p.
  Number of defecations: 0.1 ± 0.1
  Peripheral activity (crossings): 7.7 ± 1.9
Balb/c mice
  effect on the behavior (locomotor activity) of Balb/c mice in open-field test, in words: inhibited the locomotor activity
cats
  effect on heart rate, in words: small and short bradycardia

## CCOc1ccc2nc(SCCN3CCCCC3)[nH]c2c1 [XI]
Balb/c mice
  effect on the behavior (locomotor activity) of Balb/c mice in open-field test, in words: neither activatory nor inhibitory effects
cats
  effect on parameters of hemodynamics and heart activity, in words: no effects on the parameters of hemodynamics and heart activity

## c1ccc(CCn2c(SCCN3CCOCC3)nc3ccccc32)cc1 [XXII]
Balb/c mice
  effect on the behavior (locomotor activity) of Balb/c mice in open-field test, in words: neither activatory nor inhibitory effects
cats
  effect on parameters of hemodynamics and heart activity, in words: no effects on the parameters of hemodynamics and heart activity

## CN(C)CCSc1nc2ccccc2n1Cc1ccccc1 [XVIII, 1-Benzyl-2-[2-(dimethylamino)ethylthuo]benzimidazole]
cats
  effect on parameters of hemodynamics and heart activity, in words: no effects on the parameters of hemodynamics and heart activity

## CCN(CC)CCSc1nc2ccccc2n1CCc1ccccc1 [XXI, 1-(β-Phenylethyl)-2-[2-(diethylamino)ethylthio]benzimidazole]
Balb/c mice
  effect on the behavior (locomotor activity) of Balb/c mice in open-field test, in words: neither activatory nor inhibitory effects
cats
  effect on heart rate, in words: small and short bradycardia

## Cc1cc2nc(SCCN3CCCC3)[nH]c2cc1C [XIII, 2-[2-(Pyrrolidino)ethylthio]-5,6-dimethylbenzimidazole]
C57B1/6 mice
  effect on locomotor activity of C57B1/6 mice in open-field test, in words: without any changes in locomotor activity
Balb/c mice; 0.5 mg/kg i.p.
  Central activity (crossings): 4.3 ± 4.1
  Number of defecations: 2.9 ± 0.6
  Peripheral activity (crossings): 32.0 ± 5.7
  Total activity: 36.3 ± 9.8
Balb/c mice; 1.0 mg/kg i.p.
  Central activity (crossings): 0.8 ± 0.5
  Number of defecations: 1.0 ± 0.5
  Peripheral activity (crossings): 80.0 ± 11.2
  Total activity: 80.8 ± 11.7
Balb/c mice; 5.0 mg/kg i.p.
  Number of defecations: 1.6 ± 0.7
  Peripheral activity (crossings): 69.0 ± 13.2
  Total activity: 69.0 ± 13.2
Balb/c mice; 50.0 mg/kg i.p.
  Central activity (crossings): 0.7 ± 0.5
  Peripheral activity (crossings): 27.7 ± 6.2
  Total activity: 28.4 ± 6.7
Balb/c mice
  effect on the behavior (locomotor activity) of Balb/c mice in open-field test, in words: able to activate the behavior of Balb/c mice

## Cc1cc2nc(SCCCN(C)C)[nH]c2cc1C [XVI, 2-[3-(Dimethylamino)propylthio]-5,6-dimethylbenzimidazole]
Balb/c mice
  effect on the behavior (locomotor activity) of Balb/c mice in open-field test, in words: inhibited the locomotor activity
cats
  effect on parameters of hemodynamics and heart activity, in words: no effects on the parameters of hemodynamics and heart activity

## CCN(CC)CCSc1nc2ccccc2n1Cc1ccccc1 [XIX, 1-Benzyl-2-[2-(diethylarnino)ethylthio]benzimidazole]
Balb/c mice
  effect on the behavior (locomotor activity) of Balb/c mice in open-field test, in words: inhibited the locomotor activity
cats
  effect on parameters of hemodynamics and heart activity, in words: no effects on the parameters of hemodynamics and heart activity

## C=CCSc1nc2cc(C)c(C)cc2[nH]1 [III, 2-Allylthio-5,6-dimethylbenzimidazole]
C57B1/6 mice; 0.1 mg/kg i.p.
  Central activity (crossings): 42.1 ± 4.8
  Peripheral activity (crossings): 109.4 ± 8.3
  Total activity: 170.9 ± 10.0
  Vertical activity (rearings): 19.4 ± 3.4
C57B1/6 mice; 0.5 mg/kg i.p.
  Central activity (crossings): 42.1 ± 7.5
  Peripheral activity (crossings): 118.4 ± 9.0
  Total activity: 184.6 ± 8.6
  Vertical activity (rearings): 22.6 ± 2.0
C57B1/6 mice; 1.0 mg/kg i.p.
  Central activity (crossings): 35.9 ± 7.6
  Peripheral activity (crossings): 107.8 ± 7.4
  Total activity: 165.9 ± 13.5
  Vertical activity (rearings): 22.3 ± 3.8
C57B1/6 mice; 5.0 mg/kg i.p.
  Central activity (crossings): 28.8 ± 6.9
  Peripheral activity (crossings): 130.8 ± 16.8
  Total activity: 177.8 ± 20.7
  Vertical activity (rearings): 18.6 ± 2.7
C57B1/6 mice; 10.0 mg/kg i.p.
  Central activity (crossings): 23.6 ± 5.3
  Peripheral activity (crossings): 118.0 ± 7.9
  Total activity: 154.4 ± 13.3
  Vertical activity (rearings): 12.9 ± 1.8
C57B1/6 mice; 50.0 mg/kg i.p.
  Central activity (crossings): 24.0 ± 2.7
  Peripheral activity (crossings): 105.2 ± 11.9
  Total activity: 141.3 ± 11.7
  Vertical activity (rearings): 12.1 ± 1.3
C57B1/6 mice
  effect on locomotor activity of C57B1/6 mice in open-field test, in words: without any changes in locomotor activity
Balb/c mice; 0.1 mg/kg i.p.
  Central activity (crossings): 3.3 ± 2.0
  Number of defecations: 2.5 ± 0.9
  Peripheral activity (crossings): 28.1 ± 5.8
  Total activity: 32.1 ± 7.9
  Vertical activity (rearings): 0.6 ± 0.4
Balb/c mice; 1.0 mg/kg i.p.
  Central activity (crossings): 0.6 ± 0.3
  Number of defecations: 2.5 ± 0.7
  Peripheral activity (crossings): 35.8 ± 6.1
  Total activity: 36.4 ± 6.4
Balb/c mice; 5.0 mg/kg i.p.
  Central activity (crossings): 0.3 ± 0.3
  Number of defecations: 3.0 ± 0.7
  Peripheral activity (crossings): 46.8 ± 9.9
  Total activity: 47.5 ± 10.3
  Vertical activity (rearings): 0.4 ± 0.3
Balb/c mice; 10.0 mg/kg i.p.
  Central activity (crossings): 3.3 ± 2.1
  Number of defecations: 2.0 ± 0.7
  Peripheral activity (crossings): 56.1 ± 12.2
  Total activity: 59.4 ± 13.8
Balb/c mice; 20.0 mg/kg i.p.
  Number of defecations: 1.5 ± 0.7
  Peripheral activity (crossings): 24.0 ± 11.5
  Total activity: 24.1 ± 11.5
Balb/c mice
  effect on the behavior (locomotor activity) of Balb/c mice in open-field test, in words: able to activate the behavior of Balb/c mice

## CCOc1ccc2nc(SCCN(CC)CC)[nH]c2c1 [VI, 2-2-[(Diethylamino)ethylthio]-5-ethoxybenzo-imidazole]
Balb/c mice; 0.1 mg/kg i.p., 0.1 mg/kg
  Peripheral activity (crossings): 3.0 ± 1.8
  Total activity: 3.0 ± 1.8
Balb/c mice; 1.0 mg/kg i.p.
  Vertical activity (rearings): 0.4 ± 0.4
Balb/c mice; 1.0 mg/kg i.p., 1 mg/kg
  Peripheral activity (crossings): 3.3 ± 1.3
  Total activity: 3.7 ± 1.7
Balb/c mice; 10.0 mg/kg i.p., 10 mg/kg
  Peripheral activity (crossings): 3.1 ± 0.8
  Total activity: 3.1 ± 0.8
Balb/c mice
  effect on the behavior (locomotor activity) of Balb/c mice in open-field test, in words: inhibited the locomotor activity
cats
  effect on heart rate, in words: small and short bradycardia
